#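 Growth conditions: 96-well plates. Treatment: test compound, 48 hours, 5 concentrations. Analysis: linear interpolation between bracketing concentrations; unreached endpoints set to highest concentration. GI50 marks 50% less growth. TGI: total growth inhibition.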
# Assays:
# Assay in all cases: NCI-60 cell line screen, 48 h
# UACC-62 melanoma = tested on: UACC-62 melanoma
# SF-268 CNS = tested on: SF-268 CNS
# SK-OV-3 ovarian = tested on: SK-OV-3 ovarian
# SF-539 CNS = tested on: SF-539 CNS
# DU-145 prostate = tested on: DU-145 prostate
# UACC-257 melanoma = tested on: UACC-257 melanoma
# SK-MEL-2 melanoma = tested on: SK-MEL-2 melanoma
# IGROV1 ovarian = tested on: IGROV1 ovarian
# SNB-75 CNS = tested on: SNB-75 CNS
# K-562 leukemia = tested on: K-562 leukemia
# SR leukemia = tested on: SR leukemia
# SF-295 CNS = tested on: SF-295 CNS
# OVCAR-5 ovarian = tested on: OVCAR-5 ovarian
# NCI-H522 lung = tested on: NCI-H522 lung
# HL-60(TB) leukemia = tested on: HL-60(TB) leukemia
# PC-3 prostate = tested on: PC-3 prostate
# SK-MEL-5 melanoma = tested on: SK-MEL-5 melanoma
# CAKI-1 renal = tested on: CAKI-1 renal
# RPMI-8226 leukemia = tested on: RPMI-8226 leukemia
# MDA-MB-231 breast = tested on: MDA-MB-231 breast
# HOP-62 NSCLC = tested on: HOP-62 NSCLC
# OVCAR-8 ovarian = tested on: OVCAR-8 ovarian
# SW-620 colon = tested on: SW-620 colon
# SN12C renal = tested on: SN12C renal
# HT29 colon = tested on: HT29 colon
# HCT-116 colon = tested on: HCT-116 colon
# COLO 205 colon = tested on: COLO 205 colon
# NCI-H226 lung = tested on: NCI-H226 lung
# LOX IMVI melanoma = tested on: LOX IMVI melanoma
# MDA-MB-435 = tested on: MDA-MB-435
# M14 melanoma = tested on: M14 melanoma
# KM12 colon = tested on: KM12 colon
# BT-549 breast = tested on: BT-549 breast
# MOLT-4 leukemia = tested on: MOLT-4 leukemia
# SNB-19 CNS = tested on: SNB-19 CNS
# A498 renal = tested on: A498 renal
# SK-MEL-28 melanoma = tested on: SK-MEL-28 melanoma
# RXF 393 renal = tested on: RXF 393 renal
# NCI/ADR-RES ovarian = tested on: NCI/ADR-RES ovarian
# OVCAR-4 ovarian = tested on: OVCAR-4 ovarian
# MCF7 breast = tested on: MCF7 breast
# UO-31 renal = tested on: UO-31 renal
# A549 NSCLC = tested on: A549 NSCLC
# HS 578T breast = tested on: HS 578T breast
# OVCAR-3 ovarian = tested on: OVCAR-3 ovarian
# HCC-2998 colon = tested on: HCC-2998 colon
# ACHN renal = tested on: ACHN renal
# HCT-15 colon = tested on: HCT-15 colon
# 786-0 renal = tested on: 786-0 renal
# NCI-H460 lung = tested on: NCI-H460 lung
# CCRF-CEM leukemia = tested on: CCRF-CEM leukemia
# U251 CNS = tested on: U251 CNS
# T-47D breast = tested on: T-47D breast
# TK-10 renal = tested on: TK-10 renal
# MALME-3M melanoma = tested on: MALME-3M melanoma
# HOP-92 NSCLC = tested on: HOP-92 NSCLC
smiles,measurement,setting,value
[O-]c1c2cc(-[n+]3c(-c4ccccc4)cc(-c4ccccc4)cc3-c3ccccc3)cc1CO[C@@H](c1ccccc1)[C@H](c1ccccc1)OCc1cccc(n1)CO[C@@H](c1ccccc1)[C@H](c1ccccc1)OC2,TGI,UACC-62 melanoma,1.68 µM
Cc1ccc([P+](Cc2ccc([N+](=O)[O-])cc2)(c2ccc(C)cc2)c2ccc(C)cc2)cc1,GI50,SF-268 CNS,3.45 µM
same,TGI,SF-268 CNS,14 µM
same,GI50,SK-OV-3 ovarian,12 µM
same,TGI,SK-OV-3 ovarian,25.2 µM
same,GI50,SF-539 CNS,4.06 µM
same,TGI,SF-539 CNS,15.9 µM
same,GI50,DU-145 prostate,5.44 µM
same,TGI,DU-145 prostate,20.8 µM
same,GI50,UACC-257 melanoma,1.69 µM
same,TGI,UACC-257 melanoma,5.3 µM
same,GI50,SK-MEL-2 melanoma,1.96 µM
same,TGI,SK-MEL-2 melanoma,4.51 µM
same,GI50,IGROV1 ovarian,2.53 µM
same,TGI,IGROV1 ovarian,14.8 µM
same,GI50,SNB-75 CNS,1.99 µM
same,TGI,SNB-75 CNS,8.77 µM
same,GI50,K-562 leukemia,1.28 µM
same,TGI,K-562 leukemia,12.3 µM
same,GI50,SR leukemia,2.84 µM
same,TGI,SR leukemia,12.3 µM
same,GI50,SF-295 CNS,5.24 µM
same,TGI,SF-295 CNS,18.6 µM
same,GI50,OVCAR-5 ovarian,6.68 µM
same,TGI,OVCAR-5 ovarian,23.3 µM
same,GI50,NCI-H522 lung,1.56 µM
same,TGI,NCI-H522 lung,4.26 µM
same,GI50,HL-60(TB) leukemia,0.997 µM
same,TGI,HL-60(TB) leukemia,3.14 µM
same,GI50,UACC-62 melanoma,1.43 µM
same,TGI,UACC-62 melanoma,6.34 µM
same,GI50,PC-3 prostate,2.64 µM
same,TGI,PC-3 prostate,14.3 µM
same,GI50,SK-MEL-5 melanoma,1.22 µM
same,TGI,SK-MEL-5 melanoma,2.52 µM
same,GI50,CAKI-1 renal,18 µM
same,TGI,CAKI-1 renal,47.1 µM
same,GI50,RPMI-8226 leukemia,1.02 µM
same,TGI,RPMI-8226 leukemia,4.86 µM
same,GI50,MDA-MB-231 breast,1.46 µM
same,TGI,MDA-MB-231 breast,7.38 µM
same,GI50,HOP-62 NSCLC,10.4 µM
same,TGI,HOP-62 NSCLC,23.8 µM
same,GI50,OVCAR-8 ovarian,2.96 µM
same,TGI,OVCAR-8 ovarian,13 µM
same,GI50,SW-620 colon,3.07 µM
same,TGI,SW-620 colon,15.4 µM
same,GI50,SN12C renal,4.27 µM
same,TGI,SN12C renal,17.5 µM
same,GI50,HT29 colon,2.51 µM
same,TGI,HT29 colon,12.8 µM
same,GI50,HCT-116 colon,1.49 µM
same,TGI,HCT-116 colon,12 µM
same,GI50,COLO 205 colon,1.65 µM
same,TGI,COLO 205 colon,3.95 µM
same,GI50,NCI-H226 lung,5.31 µM
same,TGI,NCI-H226 lung,21.4 µM
same,GI50,LOX IMVI melanoma,2.32 µM
same,TGI,LOX IMVI melanoma,12.5 µM
same,GI50,MDA-MB-435,0.772 µM
same,TGI,MDA-MB-435,3.6 µM
same,GI50,M14 melanoma,2.96 µM
same,TGI,M14 melanoma,12.3 µM
same,GI50,KM12 colon,2.44 µM
same,TGI,KM12 colon,10.2 µM
same,GI50,BT-549 breast,2.68 µM
same,TGI,BT-549 breast,8.87 µM
same,GI50,MOLT-4 leukemia,5.97 µM
same,TGI,MOLT-4 leukemia,29.3 µM
same,GI50,SNB-19 CNS,3.25 µM
same,TGI,SNB-19 CNS,13.6 µM
same,GI50,A498 renal,2.54 µM
same,TGI,A498 renal,12.7 µM
same,GI50,SK-MEL-28 melanoma,2.82 µM
same,TGI,SK-MEL-28 melanoma,12.9 µM
same,GI50,RXF 393 renal,5.55 µM
same,TGI,RXF 393 renal,20.2 µM
same,GI50,NCI/ADR-RES ovarian,68.3 µM
same,TGI,NCI/ADR-RES ovarian,> 100 µM
same,GI50,OVCAR-4 ovarian,2.2 µM
same,TGI,OVCAR-4 ovarian,11.3 µM
same,GI50,MCF7 breast,2.72 µM
same,TGI,MCF7 breast,12.6 µM
same,GI50,UO-31 renal,13.3 µM
same,TGI,UO-31 renal,31.5 µM
same,GI50,A549 NSCLC,14.4 µM
same,TGI,A549 NSCLC,57 µM
same,GI50,HS 578T breast,3.46 µM
same,TGI,HS 578T breast,17.7 µM
same,GI50,OVCAR-3 ovarian,1.71 µM
same,TGI,OVCAR-3 ovarian,7.07 µM
same,GI50,HCC-2998 colon,2.87 µM
same,TGI,HCC-2998 colon,11.8 µM
same,GI50,ACHN renal,15.8 µM
same,TGI,ACHN renal,38.4 µM
same,GI50,HCT-15 colon,18.2 µM
same,TGI,HCT-15 colon,46.2 µM
same,GI50,786-0 renal,9.72 µM
same,TGI,786-0 renal,22.3 µM
same,GI50,NCI-H460 lung,4.26 µM
same,TGI,NCI-H460 lung,16.8 µM
same,GI50,CCRF-CEM leukemia,1.92 µM
same,TGI,CCRF-CEM leukemia,12.5 µM
same,GI50,U251 CNS,2.56 µM
same,TGI,U251 CNS,12.2 µM
Cc1nnc([S-])s1.[Au+].c1ccc([PH+](c2ccccc2)c2ccccc2)cc1,GI50,SF-539 CNS,1.63 µM
same,TGI,SF-539 CNS,3 µM
same,GI50,DU-145 prostate,1.68 µM
same,TGI,DU-145 prostate,3.23 µM
same,GI50,UACC-257 melanoma,1.52 µM
same,TGI,UACC-257 melanoma,3.09 µM
same,GI50,SK-MEL-2 melanoma,1.64 µM
same,TGI,SK-MEL-2 melanoma,3.11 µM
same,GI50,IGROV1 ovarian,1.53 µM
same,TGI,IGROV1 ovarian,2.97 µM
same,GI50,SNB-75 CNS,1.53 µM
same,TGI,SNB-75 CNS,2.87 µM
same,GI50,SR leukemia,1.67 µM
same,TGI,SR leukemia,> 100 µM
same,GI50,SF-295 CNS,1.74 µM
same,TGI,SF-295 CNS,3.21 µM
same,GI50,T-47D breast,2.2 µM
same,TGI,T-47D breast,6.12 µM
same,GI50,OVCAR-5 ovarian,1.7 µM
same,TGI,OVCAR-5 ovarian,3.13 µM
same,GI50,NCI-H522 lung,0.692 µM
same,TGI,NCI-H522 lung,3.17 µM
same,GI50,HL-60(TB) leukemia,1.85 µM
same,TGI,HL-60(TB) leukemia,5.51 µM
same,GI50,UACC-62 melanoma,1.28 µM
same,TGI,UACC-62 melanoma,2.56 µM
same,GI50,PC-3 prostate,1.52 µM
same,TGI,PC-3 prostate,2.92 µM
same,GI50,SK-MEL-5 melanoma,1.51 µM
same,TGI,SK-MEL-5 melanoma,2.97 µM
same,GI50,TK-10 renal,1.83 µM
same,TGI,TK-10 renal,3.32 µM
same,GI50,CAKI-1 renal,1.64 µM
same,TGI,CAKI-1 renal,3 µM
same,GI50,RPMI-8226 leukemia,1.8 µM
same,TGI,RPMI-8226 leukemia,5.31 µM
same,GI50,MDA-MB-231 breast,1.65 µM
same,TGI,MDA-MB-231 breast,3.05 µM
same,GI50,MALME-3M melanoma,1.59 µM
same,TGI,MALME-3M melanoma,3 µM
same,GI50,HOP-92 NSCLC,1.82 µM
same,TGI,HOP-92 NSCLC,3.24 µM
same,GI50,LOX IMVI melanoma,1.44 µM
same,TGI,LOX IMVI melanoma,2.82 µM
same,GI50,MDA-MB-435,1.7 µM
same,TGI,MDA-MB-435,3.18 µM
same,GI50,M14 melanoma,1.62 µM
same,TGI,M14 melanoma,3.56 µM
same,GI50,KM12 colon,1.83 µM
same,TGI,KM12 colon,3.41 µM
same,GI50,BT-549 breast,1.47 µM
same,TGI,BT-549 breast,2.88 µM
same,GI50,MOLT-4 leukemia,2.34 µM
same,TGI,MOLT-4 leukemia,6.76 µM
same,GI50,SNB-19 CNS,1.6 µM
same,TGI,SNB-19 CNS,2.98 µM
same,GI50,SK-MEL-28 melanoma,1.57 µM
same,TGI,SK-MEL-28 melanoma,2.99 µM
same,GI50,RXF 393 renal,1.26 µM
same,TGI,RXF 393 renal,2.53 µM
same,GI50,UO-31 renal,1.64 µM
same,TGI,UO-31 renal,2.99 µM
same,GI50,OVCAR-3 ovarian,1.73 µM
same,TGI,OVCAR-3 ovarian,3.14 µM
same,GI50,HCC-2998 colon,1.83 µM
same,TGI,HCC-2998 colon,3.36 µM
same,GI50,ACHN renal,1.86 µM
same,TGI,ACHN renal,3.26 µM
same,GI50,786-0 renal,1.78 µM
same,TGI,786-0 renal,3.32 µM
same,GI50,CCRF-CEM leukemia,2.04 µM
same,TGI,CCRF-CEM leukemia,6.91 µM

# — PubChem BioAssay (NCI)
